Measured values from BigSolDB 2.1.

CCCCCC[n+]1ccn(C)c1.O=[N+]([O-])[O-]
solubility (mole fraction)
Details | in benzene | in cyclohexane | in m-xylene | in n-heptane | in n-hexane | in n-octane | in n-pentane | in o-xylene | in p-xylene | in toluene
278.15 K | – | – | – | – | – | – | 0.000359 | – | – | –
283.15 K | – | – | – | – | – | – | 0.000397 | – | – | –
288.15 K | – | – | – | – | 0.000306 | – | 0.000442 | – | – | –
293.15 K | – | 0.000304 | – | – | 0.000362 | 0.000203 | 0.000484 | – | – | –
298.15 K | 0.000219 | 0.000357 | 0.00239 | – | 0.00042 | 0.000234 | 0.000534 | 0.00133 | 0.000795 | 0.000278
303.15 K | 0.000263 | 0.0004 | 0.00271 | – | 0.000492 | 0.000268 | 0.000578 | 0.00145 | 0.000896 | 0.000334
308.15 K | 0.000308 | 0.000446 | 0.00303 | – | 0.000575 | 0.000299 | – | 0.0016 | 0.00102 | 0.00039
313.15 K | 0.000382 | 0.000516 | 0.00337 | 0.000268 | 0.000693 | 0.000344 | – | 0.00173 | 0.00114 | 0.000482
318.15 K | 0.000454 | 0.000592 | 0.00376 | 0.000358 | 0.000794 | 0.00038 | – | 0.00187 | 0.00128 | 0.000585
323.15 K | 0.000536 | 0.000674 | 0.00413 | 0.00049 | 0.000895 | 0.000421 | – | 0.00198 | 0.00141 | 0.000686
328.15 K | 0.00061 | 0.000751 | 0.00458 | 0.000629 | 0.000995 | 0.000458 | – | 0.00213 | 0.00155 | 0.000776
333.15 K | 0.000714 | 0.000857 | 0.00505 | 0.000841 | 0.00113 | 0.000518 | – | 0.00227 | 0.00169 | 0.000904
338.15 K | 0.000832 | 0.00097 | 0.00553 | 0.00109 | – | 0.000568 | – | 0.0024 | 0.00182 | 0.00106
343.15 K | 0.000962 | – | 0.00607 | 0.00142 | – | 0.000631 | – | 0.00253 | 0.00199 | 0.00123

CCCCCCCC[n+]1ccn(C)c1.O=[N+]([O-])[O-]
solubility (mole fraction)
Details | in benzene | in cyclohexane | in m-xylene | in n-heptane | in n-hexane | in n-octane | in n-pentane | in o-xylene | in p-xylene | in toluene
278.15 K | – | – | – | – | – | – | 0.000687 | – | – | –
283.15 K | – | – | – | – | – | – | 0.000816 | – | – | –
288.15 K | – | – | – | – | 0.000683 | – | 0.000955 | – | – | –
293.15 K | – | 0.000775 | – | 0.000342 | 0.00078 | 0.000355 | 0.0011 | – | – | –
298.15 K | 0.000303 | 0.000901 | 0.00526 | 0.000407 | 0.000919 | 0.000411 | 0.00127 | 0.005 | 0.00308 | 0.000371
303.15 K | 0.000357 | 0.00106 | 0.00566 | 0.000488 | 0.00113 | 0.000502 | 0.00149 | 0.00529 | 0.00331 | 0.00043
308.15 K | 0.00041 | 0.00124 | 0.00605 | 0.000586 | 0.00128 | 0.000605 | – | 0.00558 | 0.00358 | 0.0005
313.15 K | 0.00049 | 0.00146 | 0.00645 | 0.000728 | 0.00162 | 0.000733 | – | 0.00587 | 0.00383 | 0.000598
318.15 K | 0.000572 | 0.00169 | 0.00685 | 0.000856 | 0.00184 | 0.000866 | – | 0.00616 | 0.00408 | 0.000699
323.15 K | 0.000661 | 0.00191 | 0.00725 | 0.00101 | 0.00206 | 0.00101 | – | 0.00646 | 0.00431 | 0.000806
328.15 K | 0.000751 | 0.00212 | 0.00765 | 0.00119 | 0.00232 | 0.00123 | – | 0.00675 | 0.00458 | 0.000892
333.15 K | 0.00086 | 0.00244 | 0.00805 | 0.00143 | 0.00271 | 0.00145 | – | 0.00704 | 0.00483 | 0.00103
338.15 K | 0.000981 | 0.00275 | 0.00845 | 0.00166 | – | 0.00168 | – | 0.00733 | 0.00508 | 0.00117
343.15 K | 0.00111 | – | 0.00885 | 0.00193 | – | 0.00198 | – | 0.00762 | 0.00533 | 0.00133
